Tested on: M17_3TAU(P301L) cells
Experiment: TAU-induced cytotoxicity (LDH) in the neuroblastoma tauopathy model
Format: cell-based
Conditions: Homo sapiens, 168 h, inhibition of TAU-induced toxicity, 7 days retinoic acid differentiation, LDH readout
How it was run: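 Stably transfected BE-M17 cells expressing human TAU-P301L, seeded in serum-free detection medium, then differentiated with 2.5 μM RA (added in equal volume) for 7 days at 37° C/5% CO2 to induce TAU aggregation. Cytotoxicity = supernatant LDH increase over total LDH; EC50 from dose-dependent inhibition curves.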

| SMILES | EC50 [µM] |
| --- | --- |
| COc1cccc(CC(=O)N2CC3(CN(Cc4ccc(F)cc4)C3)C2)c1 [Cpd B425] | 0.854 |
| O=C(CC1CCC(F)(F)CC1)N1CC2(CN(Cc3ccc(F)cn3)C2)C1 [Cpd B115] | 0.0413 |
| O=C(OCc1ccc(Cl)cc1)N1CC2(CN(Cc3ccc(F)cc3)C2)C1 [Cpd B130] | 0.0133 |
| COc1ccccc1CCNC1CC2(C1)CC(Nc1nc(Cc3ccc(Cl)cc3)ns1)C2 (stereo not shown) [Cpd B328, N-(3-(4-chlorobenzyl)-1,2,4-thiadiazol-5-yl)-N′-(2-methoxyphenethyl) spiro[3.3]heptane-2,6-diamine] | 0.002 |
| O=C(CC1CCC(F)(F)CC1)N1CC2(CN(Cc3ccc(C(F)(F)F)cc3)C2)C1 [Cpd B109] | 0.0121 |
| Cc1nn(C)c(CN2CC3(C2)CN(C(=O)CC2CCC(F)(F)CC2)C3)c1Cl [Cpd B122] | 3.73 |
| Cc1cccnc1CN1CC2(C1)CN(C(=O)NCc1cccc(C(F)(F)F)c1)C2 [Cpd B435] | 0.39 |
| Cc1cccnc1CN1CC2(C1)CN(C(=O)Cc1cccc(C(F)(F)F)c1)C2 [Cpd B079] | 0.0134 |
| O=C(CC1CCC(F)(F)CC1)N1CC2(CN(Cc3c(F)cccc3C(F)(F)F)C2)C1 [Cpd B110] | 0.18 |
| O=C(NCc1ccc(F)cc1)N1CC2(CN(Cc3cccnc3F)C2)C1 [Cpd B432] | 0.482 |
| CCOc1ccccc1CNC1CC2(C1)CC(Nc1nc(Cc3ccc(Cl)cc3)ns1)C2 (stereo not shown) [Cpd B315, N-(3-(4-chlorobenzyl)-1,2,4-thiadiazol-5-yl)-N′-(2-ethoxybenzyl) spiro[3.3]heptane-2,6-diamine] | 0.004 |
| O=C(OC1CCC(F)(F)CC1)N1CC2(CN(Cc3ccc(Cl)cc3F)C2)C1 [Cpd B150] | < 0.00019 |
| Cc1ccc(CNC2CC3(C2)CC(Nc2nc(Cc4ccc(Cl)cc4)ns2)C3)c(C)c1 (stereo not shown) [Cpd B319, N-(3-(4-chlorobenzyl)-1,2,4-thiadiazol-5-yl)-N′-(2,4-dimethylbenzyl) spiro[3.3]heptane-2,6-diamine] | 0.0021 |
| Fc1cccc(CNC2CC3(C2)CC(Nc2nc(Cc4ccc(Cl)cc4)ns2)C3)c1 (stereo not shown) [Cpd B323, N-(3-(4-chlorobenzyl)-1,2,4-thiadiazol-5-yl)-N′-(3-fluorobenzyl)spiro[3.3]heptane-2,6-diamine] | 0.002 |
| O=C(Cc1ccc(F)cc1)N1CC2(CN(CCCc3ccccc3)C2)C1 [Cpd B001, 2-(4-fluorophenyl)-1-(6-(3-phenylpropyl)-2,6-diazaspiro[3.3]heptan-2-yl)ethanone] | 0.0107 |
| Cc1nc(CN2CC3(C2)CN(C(=O)Cc2ccc(F)c(C(F)(F)F)c2)C3)cs1 [Cpd B101] | 0.0766 |
| O=C(CC1CCC(F)(F)CC1)N1CC2(CN(Cc3ccccc3OC(F)F)C2)C1 [Cpd B111] | 0.00355 |
| O=C(Cc1ccc(F)cc1)N1CC2(CN(Cc3ccccn3)C2)C1 [Cpd B010, 2-(4-Fluoro-phenyl)-1-(6-pyridin-2-ylmethyl-2,6-diaza-spiro[3.3]hept-2-yl)-ethanone] | 0.0475 |
| COc1ccc(OC)c(CNC2CC3(C2)CC(Nc2nc(Cc4ccc(Cl)cc4)ns2)C3)c1 (stereo not shown) [Cpd B327, N-(3-(4-chlorobenzyl)-1,2,4-thiadiazol-5-yl)-N′-(2,5-dimethoxybenzyl) spiro[3.3]heptane-2,6-diamine] | 0.0099 |
| Cc1ccc(CCN2CC3(C2)CN(C(=O)Cc2ccc(F)cc2)C3)cc1 [Cpd B026, 2-(4-Fluoro-phenyl)-1-[6-(2-p-tolyl-ethyl)-2,6-diaza-spiro[3.3]hept-2-yl]-ethanone] | 0.0261 |
| Cn1cnc(CN2CC3(C2)CN(C(=O)OC2CCC(F)(F)CC2)C3)c1Cl [Cpd B446] | 0.15 |

| SMILES | EC50 [µM] |
| --- | --- |
| Clc1ccc(Cc2nsc(NC3CC4(CC(NCCc5cccc(Cl)c5)C4)C3)n2)cc1 (stereo not shown) [Cpd B332, N-(3-(4-chlorobenzyl)-1,2,4-thiadiazol-5-yl)-N′-(3-chlorophenethyl) spiro[3.3]heptane-2,6-diamine] | 0.002 |
| Cn1cc(Cl)c(CN2CC3(C2)CN(C(=O)NCc2ccc(F)cc2)C3)n1 [Cpd B444] | 0.167 |
| O=C(NCc1ccc(F)cc1)N1CC2(CN(Cc3ccc(F)cc3)C2)C1 [Cpd B188] | 0.053 |
| COc1ccc(CCN2CC3(C2)CN(C(=O)Cc2ccc(F)cc2)C3)cc1 [Cpd B025, 2-(4-Fluoro-phenyl)-1-{6-[2-(4-methoxy-phenyl)-ethyl]-2,6-diaza-spiro[3.3]hept-2-yl}-ethanone] | 0.0179 |
| COc1cccc(CN2CC3(C2)CN(C(=O)CC2CCCC2)C3)c1 [Cpd B455] | 0.0745 |
| O=C(OCC1CCC(F)(F)CC1)N1CC2(CN(Cc3ccc(C(F)(F)F)cc3)C2)C1 [Cpd B164] | 0.0191 |
| O=C(Cc1ccc(Cl)cc1)N1CC2(CN(Cc3ccc(F)c(F)c3)C2)C1 [Cpd B055, 2-(4-chlorophenyl)-1-(6-(3,4-difluorobenzyl)-2,6-diazaspiro[3.3]heptan-2-yl)ethanone] | 0.00513 |
| Cn1cnc(CN2CC3(C2)CN(C(=O)NCC2CCC(F)(F)CC2)C3)c1Cl [Cpd B447] | 0.148 |
| O=C(CC1CCC(F)(F)CC1)N1CC2(CN(Cc3ccc(Cl)cc3F)C2)C1 [Cpd B106] | < 0.00019 |
| Cc1nc(CN2CC3(C2)CN(C(=O)Nc2cccc(C(F)(F)F)c2)C3)cs1 [Cpd B176] | 0.0734 |
| Cc1cccnc1CN1CC2(C1)CN(C(=O)C(C)(C)Oc1ccc(Cl)cc1)C2 [Cpd B085] | 3.76 |
| CC(C)(C(=O)c1ccccc1)N1CC2(CN(C(=O)Cc3ccc(F)cc3)C2)C1 [Cpd B029, 2-{6-[2-(4-Fluoro-phenyl)-acetyl]-2,6-diaza-spiro[3.3]hept-2-yl}-2-methyl-1-phenyl-propan-1-one] | 0.0083 |
| Cc1c(CN2CC3(C2)CN(C(=O)NCc2ccc(F)cc2)C3)cnn1C [Cpd B413] | 2.77 |
| Cc1c(Cl)c(CN2CC3(C2)CN(C(=O)CC2CCC(F)(F)CC2)C3)nn1C [Cpd B121] | 0.0125 |
| O=C(OC1CCC(F)(F)CC1)N1CC2(CN(Cc3ccccc3C(F)(F)F)C2)C1 [Cpd B147] | 0.00325 |
| COc1ccccc1CNC1CC2(C1)CC(Nc1nc(Cc3ccc(Cl)cc3)ns1)C2 (stereo not shown) [Cpd B305, N-(3-(4-chlorobenzyl)-1,2,4-thiadiazol-5-yl)-N′-(2-methoxybenzyl) spiro[3.3]heptane-2,6-diamine] | 0.0022 |
| COc1ccc(CNC(=O)N2CC3(CN(Cc4ncccc4C)C3)C2)cc1 [Cpd B180] | < 0.00019 |
| O=C(Cc1ccc(F)cc1)N1CC2(CN(Cc3cscn3)C2)C1 [Cpd B022, 2-(4-Fluoro-phenyl)-1-(6-thiazol-4-ylmethyl-2,6-diaza-spiro[3.3]hept-2-yl)-ethanone] | 0.149 |
| O=C(Cc1ccc(Cl)cc1)N1CC2(CN(CCc3cccc(F)c3)C2)C1 [Cpd B045, 2-(4-chlorophenyl)-1-(6-(3-fluorophenethyl)-2,6-diazaspiro[3.3]heptan-2-yl)ethanone] | 0.0116 |
| Cc1ccccc1CC(=O)N1CC2(CN(Cc3ncccc3C)C2)C1 [Cpd B430] | 0.691 |
| O=C(Cc1ccccc1O)N1CC2(CN(Cc3ccc(F)cc3)C2)C1 [Cpd B423] | 0.972 |

| SMILES | EC50 [µM] |
| --- | --- |
| Cn1cc(Cl)c(CN2CC3(C2)CN(C(=O)OCC2CCC(F)(F)CC2)C3)n1 [Cpd B159] | 0.00229 |
| O=C(Cc1cccc(Cl)c1)N1CC2(CN(Cc3ccc(F)cc3)C2)C1 [Cpd B433] | 0.469 |
| Cc1cccnc1CN1CC2(C1)CN(C(=O)CC1CCC(F)(F)CC1)C2 [Cpd B083] | 0.0189 |
| CN(Cc1ccccc1)C1CC2(CC(Nc3nc(Cc4ccc(F)cc4)ns3)C2)C1 (stereo not shown) [Cpd B302, N-benzyl-N′-(3-(4-fluorobenzyl)-1,2,4-thiadiazol-5-yl)-N-methyl spiro[3.3]heptane-2,6-diamine] | 0.0009 |
| O=C(OC1CCC(F)(F)CC1)N1CC2(CN(Cc3c(F)cccc3C(F)(F)F)C2)C1 [Cpd B148] | 0.396 |
| Cc1cccnc1CN1CC2(C1)CN(C(=O)NC1CCCCC1)C2 [Cpd B178] | 0.128 |
| COc1cccc(CN2CC3(C2)CN(C(=O)COC2CCCCC2)C3)c1 [Cpd B070] | 0.054 |
| COc1cccc(CN2CC3(C2)CN(C(=O)OC2CCC(F)(F)CC2)C3)c1 [Cpd B135] | < 0.00019 |
| Clc1ccc(Cc2nsc(NC3CC4(CC(NCc5ccc6c(c5)OCO6)C4)C3)n2)cc1 (stereo not shown) [Cpd B320, N-(benzo[d][1,3]dioxol-5-ylmethyl)-N′-(3-(4-chlorobenzyl)-1,2,4-thiadiazol-5-yl) spiro[3.3]heptane-2,6-diamine] | 0.0014 |
| Cn1ncc(CN2CC3(C2)CN(C(=O)OC2CCC(F)(F)CC2)C3)c1Cl [Cpd B144] | 0.0865 |
| Cc1csc(CN2CC3(C2)CN(C(=O)NCc2ccc(F)cc2)C3)c1 [Cpd B192] | 0.141 |
| COc1ccc(CCCN2CC3(C2)CN(C(=O)Cc2ccc(F)cc2)C3)cc1 [Cpd B060, 2-(4-Fluoro-phenyl)-1-{6-[3-(4-methoxy-phenyl)-propyl]-2,6-diaza-spiro[3.3]hept-2-yl}-ethanone] | 0.00081 |
| O=C(N1CC2(CN(Cc3ccc(F)cc3)C2)C1)C(F)(F)c1ccc(F)cc1 [Cpd B099] | 0.086 |
| O=C(NCC1CCC(F)(F)CC1)N1CC2(CN(Cc3ccc(C(F)(F)F)cc3)C2)C1 [Cpd B200] | 0.0293 |
| Cc1cccnc1CN1CC2(C1)CN(C(=O)OC1CCCC1)C2 [Cpd B138] | 0.888 |
| O=C(Cc1ccc(F)c(F)c1)N1CC2(CN(Cc3ccccc3)C2)C1 [Cpd B007, 1-(6-benzyl-2,6-diazaspiro[3.3]heptan-2-yl)-2-(3,4-difluorophenyl)ethanone] | 0.00416 |
| O=C(OCC1CCCC1)N1CC2(CN(Cc3ccc(F)cc3)C2)C1 [Cpd B131] | 0.00438 |
| Cc1cc(CNC2CC3(C2)CC(Nc2nc(Cc4ccc(Cl)cc4)ns2)C3)ccc1F (stereo not shown) [Cpd B309, N-(3-(4-chlorobenzyl)-1,2,4-thiadiazol-5-yl)-N′-(4-fluoro-3-methylbenzyl) spiro[3.3]heptane-2,6-diamine] | 0.012 |
| Cc1ccccc1CN1CC2(C1)CN(C(=O)Cc1ccc(Cl)cc1)C2 [Cpd B006, 2-(4-chlorophenyl)-1-(6-(2-methylbenzyl)-2,6-diazaspiro[3.3]heptan-2-yl)ethanone] | 0.00291 |

Source: patent US20250388592A1 (REMYND N.V., priority 2022, published 2025)
